Assay results from US11306101B2 (Celgene Corporation, priority 2019, dated 2022).

Molecular target: T1, CK1α (Homo sapiens, UniProt P48729+Q96SW2)
T1 construct: expressed in transfected cells
Experiment: CK1α ePL degradation assay in MDS-L cells
Assay type: cell-based
Settings: MDS-L cells expressing ePL-tagged CK1α; for DC50: concentration giving 50% CK1α degradation vs DMSO control; for Y: lowest measured CK1α level normalized to DMSO control
How it was run: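 MDS-L cells treated with compound in a 10-point, 3-fold series from 10 μM to 0.0005 μM at 37° C, 5% CO2 for the indicated times; CK1α measured by InCELL Hunter enzyme-fragment luminescence. Levels normalized to DMSO as percent of control; lowest level reached taken as Y value.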

T1 sequence (P48729 whole entry): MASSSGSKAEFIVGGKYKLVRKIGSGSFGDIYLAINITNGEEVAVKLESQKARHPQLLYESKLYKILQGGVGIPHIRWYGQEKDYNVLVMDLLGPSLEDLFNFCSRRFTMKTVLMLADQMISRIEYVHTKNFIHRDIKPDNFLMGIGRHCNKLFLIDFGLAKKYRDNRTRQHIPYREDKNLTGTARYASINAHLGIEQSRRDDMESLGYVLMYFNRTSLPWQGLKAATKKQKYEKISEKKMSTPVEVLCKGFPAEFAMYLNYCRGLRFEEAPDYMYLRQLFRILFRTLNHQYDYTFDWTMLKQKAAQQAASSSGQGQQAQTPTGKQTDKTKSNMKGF
T1 sequence (Q96SW2 whole entry): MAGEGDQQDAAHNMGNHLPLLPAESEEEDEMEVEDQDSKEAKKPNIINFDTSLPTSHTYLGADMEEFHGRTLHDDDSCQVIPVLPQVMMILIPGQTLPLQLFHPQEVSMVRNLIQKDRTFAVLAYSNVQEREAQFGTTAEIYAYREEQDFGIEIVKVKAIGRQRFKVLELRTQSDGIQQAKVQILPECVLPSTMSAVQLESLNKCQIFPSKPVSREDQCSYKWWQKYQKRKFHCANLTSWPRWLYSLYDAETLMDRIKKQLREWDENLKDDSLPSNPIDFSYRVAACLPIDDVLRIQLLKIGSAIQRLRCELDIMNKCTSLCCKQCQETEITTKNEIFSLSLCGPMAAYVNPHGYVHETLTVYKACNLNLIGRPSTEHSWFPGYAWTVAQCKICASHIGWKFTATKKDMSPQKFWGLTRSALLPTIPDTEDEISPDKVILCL
T1 sequence (Q16531 whole entry partner): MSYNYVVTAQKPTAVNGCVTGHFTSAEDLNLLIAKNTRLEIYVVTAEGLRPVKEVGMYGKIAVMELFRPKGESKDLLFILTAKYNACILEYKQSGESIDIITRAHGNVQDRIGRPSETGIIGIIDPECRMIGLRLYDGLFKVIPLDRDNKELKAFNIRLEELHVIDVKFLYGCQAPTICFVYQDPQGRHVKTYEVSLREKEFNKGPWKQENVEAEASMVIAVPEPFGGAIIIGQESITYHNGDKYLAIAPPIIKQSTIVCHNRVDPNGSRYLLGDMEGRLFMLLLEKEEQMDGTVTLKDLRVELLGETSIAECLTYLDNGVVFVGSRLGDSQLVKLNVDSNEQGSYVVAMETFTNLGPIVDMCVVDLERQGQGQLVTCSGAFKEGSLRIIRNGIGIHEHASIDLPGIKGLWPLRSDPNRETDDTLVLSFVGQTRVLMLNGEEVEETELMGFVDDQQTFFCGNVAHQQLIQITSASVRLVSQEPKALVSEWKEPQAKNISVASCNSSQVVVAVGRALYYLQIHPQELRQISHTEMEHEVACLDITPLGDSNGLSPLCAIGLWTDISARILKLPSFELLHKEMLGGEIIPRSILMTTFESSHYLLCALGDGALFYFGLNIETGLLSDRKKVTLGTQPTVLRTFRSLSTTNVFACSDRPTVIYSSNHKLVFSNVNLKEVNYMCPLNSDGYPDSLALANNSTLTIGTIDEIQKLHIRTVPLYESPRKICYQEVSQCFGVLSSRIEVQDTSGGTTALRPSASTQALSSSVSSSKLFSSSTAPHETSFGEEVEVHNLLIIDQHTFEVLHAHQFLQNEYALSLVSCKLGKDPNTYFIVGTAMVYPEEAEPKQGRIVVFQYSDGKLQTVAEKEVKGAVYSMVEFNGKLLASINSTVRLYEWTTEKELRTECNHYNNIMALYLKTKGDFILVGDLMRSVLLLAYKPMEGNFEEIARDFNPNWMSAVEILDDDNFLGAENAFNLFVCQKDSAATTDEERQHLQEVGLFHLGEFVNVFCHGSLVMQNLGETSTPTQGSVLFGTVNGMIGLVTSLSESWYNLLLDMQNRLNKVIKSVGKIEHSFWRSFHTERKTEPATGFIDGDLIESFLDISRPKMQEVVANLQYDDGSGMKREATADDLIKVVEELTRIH

Structure (SMILES) | DC50 | Y
O=C1CCC(N2Cc3cc(C(=O)NC(C4CCC5(CC4)CC(O)C5)C(F)(F)F)ccc3C2=O)C(=O)N1 (centres unmarked) [Example 176, 2-(2,6-dioxopiperidin-3-yl)-1-oxo-N-(2,2,2-trifluoro-1-(2-hydroxyspiro[3.5]nonan-7-yl)ethyl)isoindoline-5-carboxamide] | 100 to 500 nM | * (a Y value (shown as *) of 0<Y≤20%)
CC(C)[C@H](NC(=O)c1ccc2c(c1)CN(C1CCC(=O)NC1=O)C2=O)c1ccc(Cl)cc1 (stereo partly drawn) [Example 177, N-((S)-1-(4-chlorophenyl)-2-methylpropyl)-2-(2,6-dioxopiperidin-3-yl)-1-oxoisoindoline-5-carboxamide] | < 100 nM | * (a Y value (shown as *) of 0<Y≤20%)
O=C1CCC(N2Cc3c(ccc(C(=O)N[C@H](c4ncc(Cl)cc4Cl)C(F)(F)F)c3F)C2=O)C(=O)N1 (stereo partly drawn) [Example 178, N-((R)-1-(3,5-dichloropyridin-2-yl)-2,2,2-trifluoroethyl)-2-(2,6-dioxopiperidin-3-yl)-4-fluoro-1-oxoisoindoline-5-carboxamide] | < 100 nM | * (a Y value (shown as *) of 0<Y≤20%)
O=C1CCC(N2Cc3cc(C(=O)N[C@H](c4ccc(CN5CC6(COC6)C5)cc4)C(F)(F)F)ccc3C2=O)C(=O)N1 (stereo partly drawn) [Example 179, N-((1R)-1-(4-(2-oxa-6-azaspiro[3.3]heptan-6-ylmethyl)phenyl)-2,2,2-trifluoroethyl)-2-(2,6-dioxopiperidin-3-yl)-1-oxoisoindoline-5-carboxamide] | 100 to 500 nM | * (a Y value (shown as *) of 0<Y≤20%)
O=C1CCC(N2Cc3cc(C(=O)N[C@H](c4ccc(CN5CCCC5)cc4)C(F)(F)F)ccc3C2=O)C(=O)N1 (stereo partly drawn) [Example 180, 2-(2,6-dioxopiperidin-3-yl)-1-oxo-N-((R)-2,2,2-trifluoro-1-(4-(pyrrolidin-1-ylmethyl)phenyl)ethyl)isoindoline-5-carboxamide] | < 100 nM | * (a Y value (shown as *) of 0<Y≤20%)
O=C1CCC(N2Cc3cc(C(=O)NC(C4CCC5(CC4)CC(O)C5)C(F)(F)F)ccc3C2=O)C(=O)N1 (centres unmarked) [Example 181, 2-(2,6-dioxopiperidin-3-yl)-1-oxo-N-(2,2,2-trifluoro-1-(2-hydroxyspiro[3.5]nonan-7-yl)ethyl)isoindoline-5-carboxamide] | 100 to 500 nM | * (a Y value (shown as *) of 0<Y≤20%)
O=C1CC[C@@H](N2Cc3cc(C(=O)N[C@H](c4ncccc4Cl)C(F)(F)F)ccc3C2=O)C(=O)N1 [Example 182, N-((R)-1-(3-chloropyridin-2-yl)-2,2,2-trifluoroethyl)-2-((R)-2,6-dioxopiperidin-3-yl)-1-oxoisoindoline-5-carboxamide] | < 100 nM | * (a Y value (shown as *) of 0<Y≤20%)
O=C1CCC(N2Cc3c(ccc(C(=O)N[C@H](c4ncc(F)cc4Cl)C(F)(F)F)c3F)C2=O)C(=O)N1 (stereo partly drawn) [Example 183, N-((R)-1-(3-chloro-5-fluoropyridin-2-yl)-2,2,2-trifluoroethyl)-2-(2,6-dioxopiperidin-3-yl)-4-fluoro-1-oxoisoindoline-5-carboxamide] | < 100 nM | * (a Y value (shown as *) of 0<Y≤20%)
O=C1CCC(N2Cc3cc(C(=O)N[C@H](c4ncc(Cl)cc4Cl)C(F)(F)F)ccc3C2=O)C(=O)N1 (stereo partly drawn) [Example 184, N-((R)-1-(3,5-dichloropyridin-2-yl)-2,2,2-trifluoroethyl)-2-(2,6-dioxopiperidin-3-yl)-1-oxoisoindoline-5-carboxamide] | < 100 nM | * (a Y value (shown as *) of 0<Y≤20%)
CN1CCN(Cc2ccc([C@@H](NC(=O)c3ccc4c(c3)CN(C3CCC(=O)NC3=O)C4=O)C(F)(F)F)cc2)CC1 (stereo partly drawn) [Example 185, 2-(2,6-dioxopiperidin-3-yl)-1-oxo-N-((R)-2,2,2-trifluoro-1-(4-((4-methylpiperazin-1-yl)methyl)phenyl)ethyl)isoindoline-5-carboxamide] | 100 to 500 nM | * (a Y value (shown as *) of 0<Y≤20%)
CN(C)Cc1ccc([C@@H](NC(=O)c2ccc3c(c2F)CN(C2CCC(=O)NC2=O)C3=O)C(F)(F)F)cc1 (stereo partly drawn) [Example 186, N-((R)-1-(4-((dimethylamino)methyl)phenyl)-2,2,2-trifluoroethyl)-2-(2,6-dioxopiperidin-3-yl)-4-fluoro-1-oxoisoindoline-5-carboxamide] | < 100 nM | * (a Y value (shown as *) of 0<Y≤20%)
O=C1CCC(N2Cc3cc(C(=O)N[C@H](CC(F)(F)F)c4ccccc4)ccc3C2=O)C(=O)N1 (stereo partly drawn) [Example 187, 2-(2,6-dioxopiperidin-3-yl)-1-oxo-N-((R)-3,3,3-trifluoro-1-phenylpropyl)isoindoline-5-carboxamide] | 100 to 500 nM | ** (a Y value (shown as**) of 20%<Y≤35%)
O=C1CCC(N2Cc3cc(C(=O)N[C@H](c4ccc(CN5CC(F)(F)C5)cc4)C(F)(F)F)ccc3C2=O)C(=O)N1 (stereo partly drawn) [Example 188, N-((R)-1-(4-((3,3-difluoroazetidin-1-yl)methyl)phenyl)-2,2,2-trifluoroethyl)-2-(2,6-dioxopiperidin-3-yl)-1-oxoisoindoline-5-carboxamide] | 100 to 500 nM | ** (a Y value (shown as**) of 20%<Y≤35%)
O=C1CCC(N2Cc3cc(C(=O)N[C@H](c4ccc(CN5CCC5)cc4)C(F)(F)F)ccc3C2=O)C(=O)N1 (stereo partly drawn) [Example 189, N-((R)-1-(4-(azetidin-1-ylmethyl)phenyl)-2,2,2-trifluoroethyl)-2-(2,6-dioxopiperidin-3-yl)-1-oxoisoindoline-5-carboxamide] | < 100 nM | * (a Y value (shown as *) of 0<Y≤20%)
O=C1CCC(N2Cc3cc(C(=O)N[C@H](CC(F)(F)F)c4cccc(F)c4)ccc3C2=O)C(=O)N1 (stereo partly drawn) [Example 190, 2-(2,6-dioxopiperidin-3-yl)-1-oxo-N-((R)-3,3,3-trifluoro-1-(3-fluorophenyl)propyl)isoindoline-5-carboxamide] | < 100 nM | ** (a Y value (shown as**) of 20%<Y≤35%)
O=C1CCC(N2Cc3cc(C(=O)N[C@H](CC(F)(F)F)c4ccc(F)cc4)ccc3C2=O)C(=O)N1 (stereo partly drawn) [Example 191, 2-(2,6-dioxopiperidin-3-yl)-1-oxo-N-((R)-3,3,3-trifluoro-1-(4-fluorophenyl)propyl)isoindoline-5-carboxamide] | 100 to 500 nM | ** (a Y value (shown as**) of 20%<Y≤35%)
CN(C)Cc1ccccc1[C@@H](NC(=O)c1ccc2c(c1)CN(C1CCC(=O)NC1=O)C2=O)C(F)(F)F (stereo partly drawn) [Example 192, N-((R)-1-(2-((dimethylamino)methyl)phenyl)-2,2,2-trifluoroethyl)-2-(2,6-dioxopiperidin-3-yl)-1-oxoisoindoline-5-carboxamide] | < 100 nM | * (a Y value (shown as *) of 0<Y≤20%)
O=C1CC[C@H](N2Cc3cc(C(=O)N[C@H](c4ncc(Cl)cc4F)C(F)(F)F)ccc3C2=O)C(=O)N1 [Example 193, N-((R)-1-(5-chloro-3-fluoropyridin-2-yl)-2,2,2-trifluoroethyl)-2-((S)-2,6-dioxopiperidin-3-yl)-1-oxoisoindoline-5-carboxamide] | < 100 nM | * (a Y value (shown as *) of 0<Y≤20%)
O=C1CCC(N2Cc3cc(C(=O)N[C@H](CC(F)(F)F)c4cccc(Cl)c4)ccc3C2=O)C(=O)N1 (stereo partly drawn) [Example 194, N-((R)-1-(3-chlorophenyl)-3,3,3-trifluoropropyl)-2-(2,6-dioxopiperidin-3-yl)-1-oxoisoindoline-5-carboxamide] | < 100 nM | ** (a Y value (shown as**) of 20%<Y≤35%)
O=C1CCC(N2Cc3cc(C(=O)N[C@H](CC(F)(F)F)c4ccccc4F)ccc3C2=O)C(=O)N1 (stereo partly drawn) [Example 195, 2-(2,6-dioxopiperidin-3-yl)-1-oxo-N-((R)-3,3,3-trifluoro-1-(2-fluorophenyl)propyl)isoindoline-5-carboxamide] | < 100 nM | * (a Y value (shown as *) of 0<Y≤20%)
Cc1ccccc1[C@@H](CC(F)(F)F)NC(=O)c1ccc2c(c1)CN(C1CCC(=O)NC1=O)C2=O (stereo partly drawn) [Example 196, 2-(2,6-dioxopiperidin-3-yl)-1-oxo-N-((R)-3,3,3-trifluoro-1-o-tolylpropyl)isoindoline-5-carboxamide] | < 100 nM | * (a Y value (shown as *) of 0<Y≤20%)
O=C1CCC(N2Cc3cc(C(=O)N[C@@H](c4ccccc4F)C(F)(F)F)ccc3C2=O)C(=O)N1 (stereo partly drawn) [Example 197, 2-(2,6-dioxopiperidin-3-yl)-1-oxo-N-((S)-2,2,2-trifluoro-1-(2-fluorophenyl)ethyl)isoindoline-5-carboxamide] | 500 to 1000 nM | *** (a Y value (shown as***) of 35%<Y<50%)
CN(C)Cc1ccc([C@@H](NC(=O)c2ccc3c(c2)CN(C2CCC(=O)NC2=O)C3=O)C(F)(F)F)c(Cl)c1 (stereo partly drawn) [Example 198, N-((R)-1-(2-chloro-4-((dimethylamino)methyl)phenyl)-2,2,2-trifluoroethyl)-2-(2,6-dioxopiperidin-3-yl)-1-oxoisoindoline-5-carboxamide] | < 100 nM | * (a Y value (shown as *) of 0<Y≤20%)
Cc1cccnc1[C@@H](NC(=O)c1ccc2c(c1)CN(C1CCC(=O)NC1=O)C2=O)C(F)(F)F (stereo partly drawn) [Example 199, 2-(2,6-dioxopiperidin-3-yl)-1-oxo-N-((R)-2,2,2-trifluoro-1-(3-methylpyridin-2-yl)ethyl)isoindoline-5-carboxamide] | < 100 nM | * (a Y value (shown as *) of 0<Y≤20%)
COc1cccnc1[C@@H](NC(=O)c1ccc2c(c1)CN(C1CCC(=O)NC1=O)C2=O)C(F)(F)F (stereo partly drawn) [Example 200, 2-(2,6-dioxopiperidin-3-yl)-1-oxo-N-((R)-2,2,2-trifluoro-1-(3-methoxypyridin-2-yl)ethyl)isoindoline-5-carboxamide] | < 100 nM | * (a Y value (shown as *) of 0<Y≤20%)
